Measurements as given in ChEMBL document CHEMBL4028834, “Stereoselective synthesis of enantiopure N-substituted pyrrolidin-2,5-dione derivatives by 1,3-dipolar cycloaddition and assessment of their in vitro antioxidant and antibacterial activities” (Bioorg Med Chem Lett, 2017).
≈ marks a conversion by molar mass, not a printed value. Calls of active or inactive are those of the source. No cut-off for these calls is given here.

Key:
[1] = Antioxidant activity assessed as DPPH free radical scavenging activity at 0.5 mg/ml incubated for 20 mins in dark (reference value: 1 to 9 %); assay type: functional
[2] = Antioxidant activity assessed as DPPH free radical scavenging activity at 2.5 mg/ml incubated for 20 mins in dark (reference value: 1 to 9%); assay type: functional
[3] = Antioxidant activity assessed as ABTS radical scavenging activity at 1 mg/ml incubated for 2 hrs in dark by spectrophotometric analysis (reference value: 1 to 9%); assay type: functional
[4] = Antioxidant activity assessed as ABTS radical scavenging activity at 0.5 mg/ml incubated for 2 hrs in dark by spectrophotometric analysis (reference value: 1 to 9 %); assay type: functional
[5] = Antioxidant activity assessed as ABTS radical scavenging activity at 3 mg/ml incubated for 2 hrs in dark by spectrophotometric analysis (reference value: 1 to 9%); assay type: functional
[6] = Antioxidant activity assessed as ABTS radical scavenging activity at 2 mg/ml incubated for 2 hrs in dark by spectrophotometric analysis (reference value: 1 to 9%); assay type: functional
[7] = Antioxidant activity assessed as ABTS radical scavenging activity at 2.5 mg/ml incubated for 2 hrs in dark by spectrophotometric analysis (reference value: 1 to 9%); assay type: functional
[8] = Antioxidant activity assessed as ABTS radical scavenging activity incubated for 2 hrs in dark by spectrophotometric analysis; assay type: functional
[9] = Antioxidant activity assessed as reduction in beta-carotene/linoleic acid bleaching activity at 0.5 mg/ml after 2 hrs by spectrophotometric method (reference value: 1 to 8 %); assay type: functional; parameters: scale not given: the % may be the effect or the level left
[10] = Antioxidant activity assessed as DPPH free radical scavenging activity at 3 mg/ml incubated for 20 mins in dark (reference value: 1 to 9%); assay type: functional
[11] = Antioxidant activity assessed as reduction in beta-carotene/linoleic acid bleaching activity after 2 hrs by spectrophotometric method; assay type: functional
[12] = Antioxidant activity assessed as reduction in beta-carotene/linoleic acid bleaching activity at 1 mg/ml after 2 hrs by spectrophotometric method (reference value: 1 to 8%); assay type: functional; parameters: scale not given: the % may be the effect or the level left
[13] = Antioxidant activity assessed as DPPH free radical scavenging activity incubated for 20 mins in dark; assay type: functional
[14] = Antioxidant activity assessed as reduction in beta-carotene/linoleic acid bleaching activity at 3 mg/ml after 2 hrs by spectrophotometric method (reference value: 1 to 8%); assay type: functional; parameters: scale not given: the % may be the effect or the level left
[15] = Antioxidant activity assessed as DPPH free radical scavenging activity at 2 mg/ml incubated for 20 mins in dark (reference value: 1 to 9%); assay type: functional
[16] = Antioxidant activity assessed as reduction in beta-carotene/linoleic acid bleaching activity at 2 mg/ml after 2 hrs by spectrophotometric method (reference value: 1 to 8%); assay type: functional; parameters: scale not given: the % may be the effect or the level left
[17] = Antioxidant activity assessed as reduction in beta-carotene/linoleic acid bleaching activity at 2.5 mg/ml after 2 hrs by spectrophotometric method (reference value: 1 to 8%); assay type: functional; parameters: scale not given: the % may be the effect or the level left
[18] = Antioxidant activity assessed as DPPH free radical scavenging activity at 1 mg/ml incubated for 20 mins in dark (reference value: 1 to 9%); assay type: functional
[19] = system: Staphylococcus aureus; assay: Antibacterial activity against Staphylococcus aureus ATCC 6538 after 24 hrs by MTT dye based microdilution method; assay type: functional; conditions: ATCC 6538, 24 h
[20] = system: Bacillus subtilis; assay: Bactericidal activity against Bacillus subtilis JN934392 after 48 hrs by MTT dye based microdilution method; assay type: functional; conditions: JN934392, 48 h
[21] = system: Staphylococcus aureus; assay: Bactericidal activity against Staphylococcus aureus ATCC 6538 after 48 hrs by MTT dye based microdilution method; assay type: functional; conditions: ATCC 6538, 48 h
[22] = system: Salmonella enteritidis; assay: Antibacterial activity against Salmonella enterica serotype Enteritidis ATCC 43972 assessed as diameter of inhibition zone at 125 mg/ml by agar well diffusion method; assay type: functional, Salmonella enterica subsp. enterica serovar Enteritidis; conditions: read-out: DIZ
[23] = system: Salmonella enteritidis; assay: Bactericidal activity against Salmonella enterica serotype Enteritidis ATCC 43972 after 48 hrs by MTT dye based microdilution method; assay type: functional, Salmonella enterica subsp. enterica serovar Enteritidis; conditions: ATCC 43972, 48 h
[24] = system: Bacillus cereus; assay: Antibacterial activity against Bacillus cereus JN934390 after 24 hrs by MTT dye based microdilution method; assay type: functional; conditions: JN934390, 24 h
[25] = system: Bacillus cereus; assay: Bactericidal activity against Bacillus cereus JN934390 after 48 hrs by MTT dye based microdilution method; assay type: functional; conditions: JN934390, 48 h
[26] = system: Micrococcus luteus; assay: Antibacterial activity against Micrococcus luteus assessed as diameter of inhibition zone at 125 mg/ml by agar well diffusion method; assay type: functional; conditions: read-out: DIZ
[27] = system: Klebsiella pneumoniae; assay: Antibacterial activity against Klebsiella pneumoniae assessed as diameter of inhibition zone at 125 mg/ml by agar well diffusion method; assay type: functional; conditions: read-out: DIZ
[28] = system: Bacillus cereus; assay: Antibacterial activity against Bacillus cereus JN934390 assessed as diameter of inhibition zone at 125 mg/ml by agar well diffusion method; assay type: functional; conditions: read-out: DIZ
[29] = system: Listeria monocytogenes; assay: Antibacterial activity against Listeria monocytogenes assessed as diameter of inhibition zone at 125 mg/ml by agar well diffusion method; assay type: functional; conditions: read-out: DIZ
[30] = system: Bacillus subtilis; assay: Antibacterial activity against Bacillus subtilis JN934392 after 24 hrs by MTT dye based microdilution method; assay type: functional; conditions: JN934392, 24 h
[31] = system: Salmonella enteritidis; assay: Antibacterial activity against Salmonella enterica serotype Enteritidis ATCC 43972 after 24 hrs by MTT dye based microdilution method; assay type: functional, Salmonella enterica subsp. enterica serovar Enteritidis; conditions: ATCC 43972, 24 h
[32] = system: Staphylococcus aureus; assay: Antibacterial activity against Staphylococcus aureus ATCC 6538 assessed as diameter of inhibition zone at 125 mg/ml by agar well diffusion method; assay type: functional; conditions: read-out: DIZ
[33] = system: Micrococcus luteus; assay: Antibacterial activity against Micrococcus luteus after 24 hrs by MTT dye based microdilution method; assay type: functional
[34] = system: Bacillus subtilis; assay: Antibacterial activity against Bacillus subtilis JN934392 assessed as diameter of inhibition zone at 125 mg/ml by agar well diffusion method; assay type: functional; conditions: read-out: DIZ
[35] = system: Escherichia coli; assay: Antibacterial activity against Escherichia coli ATCC 25922 assessed as diameter of inhibition zone at 125 mg/ml by agar well diffusion method; assay type: functional
[36] = system: Listeria monocytogenes; assay: Antibacterial activity against Listeria monocytogenes after 24 hrs by MTT dye based microdilution method; assay type: functional
[37] = system: Klebsiella pneumoniae; assay: Antibacterial activity against Klebsiella pneumoniae after 24 hrs by MTT dye based microdilution method; assay type: functional

SMILES | Activity [1] | Activity [2] | Activity [3] | Activity [4] | Activity [5] | Activity [6] | Activity [7] | IC50 [8] | Activity [9] | Activity [10] | IC50 [11] | Activity [12] | Activity [13] | IC50 [13] | Activity [14] | Activity [15] | Activity [16] | Activity [17] | Activity [18] | further results
CC(C)[C@@H]1CC[C@@H](C)C[C@@]12N(C)C(=O)[C@@H]1[C@H]3C(=O)N(C)C(=O)[C@H]3ON12 | 18.2% | 55.8% | 41.5% | 39.2% | 75.3% | 59.9% | 70.3% | 1.4 mg/mL (≈ 4.01 mM) | 36.5% | 64% | 2.16 mg/mL (≈ 6.18 mM) | 47.7% | Dose-dependent effect | 1.65 mg/mL (≈ 4.72 mM) | 67.5% | 53.4% | 49.7% | 57.2% | 43.1% | 
CC(C)[C@@H]1CC[C@@H](C)C[C@@]12N(C)C(=O)[C@@H]1[C@H]3C(=O)N(c4ccc(Cl)cc4)C(=O)[C@H]3ON12 | 18.1% | 53.1% | 39.9% | 29.7% | 74% | 49.4% | 60.1% | 2 mg/mL (≈ 4.48 mM) | 47.5% | 47.2 to 63.9% | 0.71 mg/mL (≈ 1.59 mM) | 53.7% | Dose-dependent effect | 2.15 mg/mL (≈ 4.82 mM) | 73.2% | 48.2% | 56.4% | 61.3% | 31.7% | 
Cc1cccc(N2C(=O)[C@H]3[C@H](ON4[C@@H]3C(=O)N(C)[C@@]43C[C@H](C)CC[C@H]3C(C)C)C2=O)c1 | 26.8% | 57.5% | 25.8% | 16.1% | 52.4% | 35.3% | 47.7% | 2.7 mg/mL (≈ 6.35 mM) | 25% | 73.8% | 1.93 mg/mL (≈ 4.54 mM) | 39% | Dose-dependent effect | 1.88 mg/mL (≈ 4.42 mM) | 65.8% | 49.9% | 43.6% | 57.6% | 38.7% | 
CC(C)[C@@H]1CC[C@@H](C)C[C@@]12N(C)C(=O)[C@@H]1[C@H]3C(=O)NC(=O)[C@H]3ON12 | 21.6% | 67.2% | 42.6% | 23.5% | 72% | 57.2% | 70% | 1.5 mg/mL (≈ 4.47 mM) | 25.9% | 80.3% |  | 35.6% | Dose-dependent effect | 1.55 mg/mL (≈ 4.62 mM) | 47.2% | 58.7% | 37.1% | 38% | 39.3% | 
COc1ccc(N2C(=O)[C@H]3[C@H](ON4[C@@H]3C(=O)N(C)[C@@]43C[C@H](C)CC[C@H]3C(C)C)C2=O)cc1 | 32.9% | 65.3% | 61% | 48.9% | 75.1% | 68.9% | 71.5% | 0.48 mg/mL (≈ 1.09 mM) | 44.5% | 68.2% | 0.99 mg/mL (≈ 2.24 mM) | 50% | Dose-dependent effect | 1.12 mg/mL (≈ 2.54 mM) | 67.7% | 61.7% | 55.7% | 59.3% | 48.1% | MIC [19]: 6250 µg/mL (≈ 14.2 mM); MBC [20]: 50 mg/mL (≈ 113 mM); MBC [21]: 50 mg/mL (≈ 113 mM); zone of inhibition at 125000 µg/mL [22]: 15 mm; MBC [23]: 50 mg/mL (≈ 113 mM); MIC [24]: 6250 µg/mL (≈ 14.2 mM); MBC [25]: 50 mg/mL (≈ 113 mM); zone of inhibition at 125000 µg/mL [26]: 10 mm; zone of inhibition at 125000 µg/mL [27]: 9 mm; zone of inhibition at 125000 µg/mL [28]: 12.7 mm; zone of inhibition at 125000 µg/mL [29]: 11 mm; MIC [30]: 6250 µg/mL (≈ 14.2 mM); MIC [31]: 3120 µg/mL (≈ 7.07 mM); zone of inhibition at 125000 µg/mL [32]: 9.66 mm; MIC [33]: 12.5 mg/mL (≈ 28.3 mM); zone of inhibition at 125000 µg/mL [34]: 11.3 mm; diameter of the inhibition zone (DIZ) [35]: inactive; MIC [36]: 12.5 mg/mL (≈ 28.3 mM); MIC [37]: 12.5 mg/mL (≈ 28.3 mM)
Cc1c(C)c2c(c(C)c1O)CCC(C)(C(=O)O)O2 (centres undefined) [TROLOX] |  |  | 85.5% | 82.1% | 91.8% | 89.2% | 90.8% | 0.3 mg/mL (≈ 1.2 mM) |  |  |  |  |  |  |  |  |  |  |  | 
CC(C)[C@@H]1CC[C@@H](C)C[C@@]12N(C)C(=O)[C@@H]1[C@H]3C(=O)N(c4ccc5ccccc5c4)C(=O)[C@H]3ON12 | 13.8% | 39.5% | 33.2% | 25.4% | 60.1% | 43.6% | 47.9% | 2.52 mg/mL (≈ 5.46 mM) | 24.5% | 50.9% | 2.68 mg/mL (≈ 5.81 mM) | 29.6% | Dose-dependent effect | 2.92 mg/mL (≈ 6.33 mM) | 57.4% | 35% | 36.5% | 45.1% | 27.6% | 
CC(C)[C@@H]1CC[C@@H](C)C[C@@]12N(C)C(=O)[C@@H]1[C@H]3C(=O)N(c4ccccc4)C(=O)[C@H]3ON12 | 21.6% | 76.2% | 29.7% | 14.7% | 73.5% | 41% | 58.6% | 2.25 mg/mL (≈ 5.47 mM) | 28.7% | 80.7% | 2.31 mg/mL (≈ 5.61 mM) | 35.4% | Dose-dependent effect | 0.9 mg/mL (≈ 2.19 mM) | 58.9% | 74.2% | 48.2% | 53.1% | 54.9% | 
Cc1cc(C(C)(C)C)c(O)c(C(C)(C)C)c1 [BUTYLATED HYDROXYTOLUENE] | 33.8% | 85.2% |  |  |  |  |  |  | 39.6% | 85.8% | 0.93 mg/mL (≈ 4.22 mM) | 52.3% |  | 0.72 mg/mL (≈ 3.27 mM) | 79.2% | 84.8% | 65.9% | 75.1% | 69.2% | 
